pIC50: −log10 of the molar value.
target: activated ERK2 (Homo sapiens (Human), UniProt P28482); assay: Activated ERK2 (20 pM) Kinase Assay (AlphaScreen, ERKtide phosphorylation); format: biochemical; settings: 0.02 nM ERK2, 400 nM ERKtide peptide, 35 μM ATP, 30 min preincubation
Procedure: Activated ERK2 (20 pM) Kinase Assay:
The assay was carried out in 20 mM HEPES [pH 7.5], 5 mM MgCl2, 1 mM DTT, 0.01% Tween-20, 0.05% BSA using 0.02 nM ERK2, 400 nM ERKtide peptide and 35 μM ATP (all concentrations are final in the reaction) in a total volume of 10.25 μL. […] Compound dilution series were prepared in 100% DMSO. ERK2 was preincubated with compounds for 30 minutes at ambient temperature. Reaction was initiated by addition of a substrate cocktail of ERKtide peptide and ATP and was allowed to proceed for 4 hours at ambient temperature. Reaction was terminated by addition of 10 μL of a 2× stop buffer consisting of 100 mM Tris-Cl [pH 7.5], 25 mM EDTA, 0.01% Tween 20, 20 μg/mL of AlphaScreen Protein A Acceptor Beads, 20 μg/mL of Streptavidin Donor Beads (PerkinElmer, Waltham, Mass.), and 1:1000 dilution phospho-EGF Receptor (Thr669) antibody (Cat #8808, Cell Signaling Technology, Danvers, Mass.). Terminated reactions were read, after overnight incubation in the dark, on an EnVision Multilabel Plate Reader (PerkinElmer, Waltham, Mass.), with excitation and emission wavelengths set to 680 nm and 570 nm, respectively. IC50 values were determined using a four-parameter fit.

activated ERK2, sequence (P28482 whole entry): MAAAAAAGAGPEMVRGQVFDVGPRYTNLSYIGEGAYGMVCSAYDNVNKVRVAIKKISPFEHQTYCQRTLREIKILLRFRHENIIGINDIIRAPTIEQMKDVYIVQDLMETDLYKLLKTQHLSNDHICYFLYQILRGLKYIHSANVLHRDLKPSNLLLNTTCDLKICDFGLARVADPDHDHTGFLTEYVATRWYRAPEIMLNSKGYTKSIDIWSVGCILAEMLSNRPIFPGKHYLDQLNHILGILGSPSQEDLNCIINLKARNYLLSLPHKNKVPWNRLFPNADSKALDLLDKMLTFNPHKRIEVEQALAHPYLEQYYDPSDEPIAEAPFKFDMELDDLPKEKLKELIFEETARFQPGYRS

Row | pIC50 | Structure (SMILES)
1 | 10.82 | CSc1cc(F)cc([C@@H](CO)NC(=O)c2ccc(-c3cc(-c4cn(C)nc4C)cnc3N)cc2F)c1 [Example 394, (S)-4-(2-amino-5-(1,3-dimethyl-1H-pyrazol-4-yl)pyridin-3-yl)-2-fluoro-N-(1-(3-fluoro-5-(methylthio)phenyl)-2-hydroxyethyl) benzamide]
2 | 9.46 | C[C@@H](NC(=O)c1ccc(-c2cc([C@H]3CC[C@H](O)CC3)cnc2N)cc1F)c1cc(F)cc(S(C)(=O)=O)c1 [Example 443, 4-(2-amino-5-((1r,4R)-4-hydroxy-cyclohexyl)pyridin-3-yl)-2-fluoro-N-((R)-1-(3-fluoro-5-(methylsulfonyl)phenyl)ethyl) benzamide]
3 | 9.87 | Nc1ncc([C@@H]2CC[C@H](O)[C@H](O)C2)nc1-c1ccc(C(=O)N[C@H](CO)c2cc(F)cc(I)c2)c(F)c1 [Example 462, 4-(3-amino-6-((1R,3R,4S)-3,4-dihydroxy-cyclohexyl)pyrazin-2-yl)-2-fluoro-N-((S)-1-(3-fluoro-5-iodophenyl)-2-hydroxyethyl) benzamide]
4 | 8.01 | Nc1ncc(C(=O)N2CCC(CO)CC2)nc1-c1ccc(C(=O)N[C@H](CO)c2cc(F)cc(Br)c2)c(F)c1 [Example 475, (S)-4-(3-amino-6-(4-(hydroxymethyl)piperidine-1-carbonyl)pyrazin-2-yl)-N-(1-(3-bromo-5-fluorophenyl)-2-hydroxyethyl)-2-fluorobenzamide]
5 | 10.25 | COC(=O)N[C@H]1CC[C@H](c2cnc(N)c(-c3ccc(C(=O)N[C@H](CO)c4cc(F)cc(Br)c4)c(F)c3)n2)CC1 [Example 441, Methyl ((1S,4r)-4-(5-amino-6-(4-(((S)-1-(3-bromo-5-fluorophenyl)-2-hydroxyethyl)carbamoyl)-3-fluorophenyl)pyrazin-2-yl)cyclohexyl) carbamate]
6 | 11.00 | CSc1cccc([C@@H](CO)NC(=O)c2ccc(-c3nc(C4CCOCC4)cnc3N)cc2F)c1 [Example 387, (S)-4-(3-amino-6-(tetrahydro-2H-pyran-4-yl)pyrazin-2-yl)-2-fluoro-N-(2-hydroxy-1-(3-(methylthio)phenyl)ethyl)benzamide]
7 | 10.70 | CC(=O)NC[C@@H](NC(=O)c1ccc(-c2nc(C3CCOCC3)cnc2N)cc1F)c1cc(F)cc(Br)c1 [Example 408, (S)-N-(2-acetamido-1-(3-bromo-5-fluorophenyl)ethyl)-4-(3-amino-6-(tetrahydro-2H-pyran-4-yl)pyrazin-2-yl)-2-fluorobenzamide]
8 | 9.75 | Nc1ncc([C@@H]2CCC(F)(F)[C@@H](O)C2)nc1-c1ccc(C(=O)N[C@H](CO)c2cccc(Cl)c2)c(F)c1 [Example 472, 4-(3-amino-6-((1R,3S)-4,4-difluoro-3-hydroxycyclo-hexyl)pyrazin-2-yl)-N-((S)-1-(3-chlorophenyl)-2-hydroxyethyl)-2-fluorobenzamide]
9 | 10.73 | Nc1ncc([C@@H]2CC[C@@H](O)[C@H](O)C2)nc1-c1ccc(C(=O)N[C@H](CO)c2cc(F)cc(Br)c2)c(F)c1 [Example 465, 4-(3-amino-6-((1R,3R,4R)-3,4-dihydroxy-cyclohexyl)pyrazin-2-yl)-2-fluoro-N-((S)-1-(3-fluoro-5-bromophenyl)-2-hydroxyethyl) benzamide]
10 | 10.70 | NC[C@@H](NC(=O)c1ccc(-c2nc(C3CCOCC3)cnc2N)cc1F)c1cccc(Br)c1 [Example 414, (S)-N-(2-amino-1-(3-bromophenyl)ethyl)-4-(3-amino-6-(tetrahydro-2H-pyran-4-yl)pyrazin-2-yl)-2-fluorobenzamide]

The next lines start with the compound.

Row | Structure (SMILES) | pIC50
11 | CNC[C@@H](NC(=O)c1ccc(-c2nc(C3CCOCC3)cnc2N)cc1F)c1cccc(Br)c1 [Example 380, (S)-4-(3-amino-6-(tetrahydro-2H-pyran-4-yl)pyrazin-2-yl)-N-(1-(3-bromophenyl)-2-(methylamino)ethyl)-2-fluorobenzamide] | 11.01
12 | N#Cc1cc(-c2cc(C3CCOCC3)cnc2N)cc(F)c1C(=O)NCc1ccccc1 [Example 204, 4-(2-amino-5-(tetrahydro-2H-pyran-4-yl)pyridin-3-yl)-N-benzyl-2-cyano-6-fluorobenzamide] | 7.26
13 | Nc1ncc([C@H]2CC[C@H](O)CC2)nc1-c1ccc(C(=O)N[C@H](CO)c2cc(F)cc(I)c2)c(F)c1 [Example 344, 4-(3-amino-6-((1r,4S)-4-hydroxy-cyclohexyl)pyrazin-2-yl)-2-fluoro-N-((S)-1-(3-fluoro-5-iodophenyl)-2-hydroxyethyl) benzamide] | 11.01
14 | Cn1cc(-c2cnc(N)c(-c3ccc(C(=O)N[C@H](CO)c4cc(F)cc(CF)c4)c(F)c3)c2)cn1 [Example 240, (S)-4-(2-amino-5-(1-methyl-1H-pyrazol-4-yl)pyridin-3-yl)-2-fluoro-N-(1-(3-fluoro-5-(fluoromethyl)phenyl)-2-hydroxyethyl) benzamide] | 10.70
15 | NC[C@@H](NC(=O)c1ccc(-c2nc(C3CCOCC3)cnc2N)cc1F)c1cccc(Cl)c1 [Example 174, (S)—N-(2-amino-1-(3-chlorophenyl)ethyl)-4-(3-amino-6-(tetrahydro-2H-pyran-4-yl)pyrazin-2-yl)-2-fluorobenzamide] | 10.68
16 | NC[C@@H](NC(=O)c1ccc(-c2nc(C3CCOCC3)cnc2N)cc1F)c1cc(F)cc(Cl)c1 [Example 181, (S)—N-(2-amino-1-(3-chloro-5-fluorophenyl)ethyl)-4-(3-amino-6-(tetrahydro-2H-pyran-4-yl)pyrazin-2-yl)-2-fluorobenzamide] | 10.92
17 | Nc1ncc([C@@H]2CC[C@@H](O)[C@H](F)C2)nc1-c1ccc(C(=O)N[C@H](CO)c2cc(F)cc(Br)c2)c(F)c1 [Example 183, 4-(3-amino-6-((1R,3R,4R)-3-fluoro-4-hydroxycyclohexyl)pyrazin-2-yl)-N—((S)-1-(3-bromo-5-fluorophenyl)-2-hydroxyethyl)-2-fluorobenzamide] | 10.24
18 | CCNC[C@@H](NC(=O)c1ccc(-c2nc(C3CCOCC3)cnc2N)cc1F)c1cc(F)cc(Br)c1 [Example 371, (S)-4-(3-amino-6-(tetrahydro-2H-pyran-4-yl)pyrazin-2-yl)-N-(1-(3-bromo-5-fluorophenyl)-2-(ethylamino)ethyl)-2-fluorobenzamide] | 10.52
19 | Nc1ncc([C@@H]2CC[C@@H](O)[C@H](F)C2)nc1-c1ccc(C(=O)N[C@H](CO)c2cc(F)cc(I)c2)c(F)c1 [Example 190, 4-(3-amino-6-((1R,3R,4R)-3-fluoro-4-hydroxycyclohexyl)pyrazin-2-yl)-2-fluoro-N—((S)-1-(3-fluoro-5-iodophenyl)-2-hydroxyethyl)benzamide] | 10.75
20 | CNC[C@@H](NC(=O)c1ccc(-c2nc([C@H]3CC[C@H](O)[C@@H](F)C3)cnc2N)cc1F)c1cc(F)cc(Br)c1 [Example 184, 4-(3-amino-6-((1S,3S,4S)-3-fluoro-4-hydroxycyclohexyl)pyrazin-2-yl)-N—((S)-1-(3-bromo-5-fluorophenyl)-2-(methylamino)ethyl)-2-fluorobenzamide] | 10.58
21 | CNC[C@@H](NC(=O)c1ccc(-c2nc([C@H]3CC[C@H](OC)CC3)cnc2N)cc1F)c1cccc(Cl)c1 [Example 377, 4-(3-amino-6-((1r,4S)-4-methoxy-cyclohexyl)pyrazin-2-yl)-N-((S)-1-(3-chlorophenyl)-2-(methylamino)ethyl)-2-fluorobenzamide] | 10.15
22 | Cc1nn(C)cc1-c1cnc(N)c(-c2ccc(C(=O)N[C@H](CO)c3cccc(CF)c3)c(F)c2)c1 [Example 255, (S)-4-(2-amino-5-(1,3-dimethyl-1H-pyrazol-4-yl)pyridin-3-yl)-2-fluoro-N-(1-(3-(fluoromethyl)phenyl)-2-hydroxyethyl) benzamide] | 10.54
23 | CN1C[C@H](NC(=O)c2ccc(-c3cc(-c4cnn(C)c4)cnc3N)cc2F)[C@@H](c2ccc(F)c(Cl)c2)C1 (stereo in doubt) [Example 208, trans-4-(2-amino-5-(1-methyl-1H-pyrazol-4-yl)pyridin-3-yl)-N-((3R,4S)-4-(3-chloro-4-fluorophenyl)-1-methylpyrrolidin-3-yl)-2-fluorobenzamide] | 5.13
24 | CNC[C@@H](NC(=O)c1ccc(-c2nc([C@@H]3CC[C@@H](O)[C@@H](F)C3)cnc2N)cc1F)c1cc(F)cc(Br)c1 [Example 355, 4-(3-amino-6-((1R,3S,4R)-3-fluoro-4-hydroxy-cyclohexyl)pyrazin-2-yl)-N-((S)-1-(3-bromo-5-fluorophenyl)-2-(methylamino)ethyl)-2-fluorobenzamide] | 10.64
25 | Nc1ncc([C@H]2CC[C@@H](O)CC2)nc1-c1ccc(C(=O)N[C@H](CO)c2cc(F)cc(CF)c2)c(F)c1 [Example 178, 4-(3-amino-6-((1s,4R)-4-hydroxycyclohexyl)pyrazin-2-yl)-2-fluoro-N—((S)-1-(3-fluoro-5-(fluoromethyl)phenyl)-2-hydroxyethyl)benzamide] | 9.68
26 | Cc1nn(C)cc1-c1cnc(N)c(-c2ccc(C(=O)N[C@H](CO)c3cccc(C(F)F)c3)c(F)c2)c1 [Example 277, (S)-4-(2-amino-5-(1,3-dimethyl-1H-pyrazol-4-yl)pyridin-3-yl)-N-(1-(3-(difluoromethyl)phenyl)-2-hydroxyethyl)-2-fluorobenzamide] | 10.15

Reference: patent US9242996B2 (Novartis AG, priority 2013, dated 2016)
